Source: patent US20060058366A1, “Jnk inhibitor” (KYOWA HAKKO KOGYO CO., LTD., priority 2002, published 2006)

Key:
mouse JNK 3 = target: T1, mouse JNK 3 (Mus musculus, UniProt Q61831); test: JNK 3 inhibitory activity (33P incorporation into GST-JSAP1 fused protein); format: biochemical; details: crude extract of COS-7 cells expressing mouse JNK 3; 3 μmol/L ATP; GST-JSAP1 substrate; 30° C., 15 minutes; read-out: JNK3 Inhibitory Activity (IC50/μM)
T1 construct: made in house; host or cells: COS-7 cells (crude extract)
T1 sequence (Q61831 whole entry, the tested form may be a part): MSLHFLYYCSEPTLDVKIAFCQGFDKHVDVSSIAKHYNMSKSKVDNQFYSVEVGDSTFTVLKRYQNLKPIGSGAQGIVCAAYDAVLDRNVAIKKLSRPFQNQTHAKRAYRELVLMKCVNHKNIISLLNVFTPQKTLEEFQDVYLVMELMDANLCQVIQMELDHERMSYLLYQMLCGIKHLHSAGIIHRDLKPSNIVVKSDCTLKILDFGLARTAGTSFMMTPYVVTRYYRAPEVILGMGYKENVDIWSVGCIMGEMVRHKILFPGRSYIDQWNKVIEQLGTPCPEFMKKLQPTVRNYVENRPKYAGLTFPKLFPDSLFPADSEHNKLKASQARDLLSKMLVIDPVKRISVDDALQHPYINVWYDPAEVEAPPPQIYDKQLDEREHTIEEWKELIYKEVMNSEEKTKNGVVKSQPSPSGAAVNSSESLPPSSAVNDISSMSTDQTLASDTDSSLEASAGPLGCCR
Method: A crude extract of COS-7 cells in which mouse JNK 3 was expressed was used as the transcription enzyme solution. Glutathione-S-transferase (GST)-JSAP 1 (JNK/SAPK associated protein 1) fused protein was expressed in E. coli and its crude extract was subjected to an affinity purification using a column of Glutathione Sepharose 4B. An enzyme solution (3 μL), 50 μL of a reaction solution containing a test compound [in the reaction solution, (physiological saline)/(DMSO solution containing the test compound) (ratio by weight) was adjusted to 99/1], 50 μL of a substrate solution (final concentration: 3 μmol/L ATP), 0.75 μCi/ml[γ-^33P]-ATP and 66 μg/mL (1.5 μmol/L) of GST-JSAP1 fused protein reaction solution were incubated at 30° C. for 15 minutes. The reaction was stopped by addition of ethanol whereupon the GST-JSAP1 fused protein was precipitated. The precipitated protein was filtered using a Filter Mate Harvester (Packard Instruments) and adsorbed to a Unifilter Plate GF/B. Incorporation of radiation activity from [γ-^33P1-ATP to the GST-JSAP1 fused protein was measured using TopCount-HTS (Packard Instruments) to calculate enzyme inhibition activity. The enzyme inhibitory activity was calculated by a Probit (L) method using a statistic analysis software SAS (Release 6.12; SAS Institute, Inc.) as the 50% enzyme activity inhibiting concentration (IC50).

PC12 cells = test: Apoptosis suppressive activity by removal of NGF in NGF-differentiated PC12 cells (MTT); format: cell-based; details: 3 μmol/L test compound; 24 hours without NGF; cells with NGF not removed = 100%, NGF removed = 0%
Method: PC12 cells prepared in 6.0×10^4/mL by Roswell Park Memorial Institute's Medium (RPMI) 1640 medium containing 10% of horse serum, 5% of bovine fetal serum and penicillin/streptomycin were disposed in a 24-well multidish (NulgeNunc International; No. 143982) coated with polyethyleneimine in an amount of 0.5 mL for each well. After the cells were adhered to the dish, the medium was removed, an RPMI 1640 medium containing […] of 1% horse serum, penicillin/streptomycin and 50 ng/mL of mouse nerve growth factor (NGF) was added and the cells were incubated in a carbon dioxide gas incubator at 37° C. for 9 to 12 days, causing the cells to differentiate into a nerve cell form. A dilution series of DMSO solution of the test compound was prepared, and diluted with a medium containing 1% horse serum and penicillin/streptomycin and containing no NGF (final DMSO concentration: 0.1%). The medium was removed, washing was conducted twice using a medium containing 0.5 mL of the test compound, 1% horse serum, and penicillin/streptomycin, and containing no NGF, 0.5 mL of the above-medium was added once again to each well and then incubation was conducted in a carbon dioxide gas incubator at 37° C. for 24 hours. The medium was removed, 0.2 mL of a medium containing 1% horse serum, penicillin/streptomycin, NGF and 1 mg/mL 3-(4,5-dimethyl-2-thiazolyl)-2,5-diphenyl-2H-tetrazolium bromide (MTT) containing no test compound, was added to each well and incubation was conducted in a carbon dioxide gas incubator at 37° C. for 4 hours. DMSO (0.6 mL) was added to each well and 0.2 mL thereof was transferred to a 96-well multititer plate (Nulge Nunc International; No. 167008) and absorbances at 590 nm and 630 nm were measured using a microplate reader EL 3401 (Bio-Tek). The absorbance differential was calculated by subtracting the […] for each well. The apoptosis suppressive activity (%) of test compound were calculated by comparing the absorbance differential obtained from cells treated with test compound of known concentration with the value in the cells from which no NGF was removed and the value in the cells from which NGF was removed. Here, the value in the cells from which no NGF was removed was set at 100% while the value in the cells from which NGF was removed was set at 0%.

| Compound | IC50 (mouse JNK 3) | Apoptosis Suppressive Activity in 3 μmol/L of Test Compound (%) (PC12 cells) |
| --- | --- | --- |
| CN(C)CCOc1ccc(/C=C/c2n[nH]c3ccccc23)cc1 [Compound 1] | < 0.5 µM | 63% |
| C(=C\c1n[nH]c2ccccc12)/c1cccnc1 [Compound 2, (E)-3-[2-(3-Pyridyl)vinyl]-1H-indazole] | < 0.5 µM | 44% |
| O=C(Nc1ccc2[nH]nc(/C=C/c3cccnc3)c2c1)c1ccccc1 [Compound 4, (E)-5-Benzamido-3-[2-(3-pyridyl)vinyl]-1H-indazole] | – | 64% |
| O=C(Cc1c[nH]c2ccccc12)Nc1ccc2[nH]nc(/C=C/c3cccnc3)c2c1 [Compound 6, (E)-5-(3-Indolyl)acetamide-3-[2-(3-pyridyl)vinyl]-1H-indazole] | < 0.5 µM | – |
| O=C(CCS(=O)(=O)c1ccccc1)Nc1ccc2[nH]nc(/C=C/c3cccnc3)c2c1 [Compound 7, (E)-5-[3-(Phenylsulfonyl)propaneamido]-3-[2-(3-pyridyl)vinyl]-1H-indazole] | 1.2 µM | – |
| O=C(Nc1ccc2[nH]nc(/C=C/c3cccnc3)c2c1)c1cnccn1 [Compound 9, (E)-5-(Pyrazinecarboxamido)-3-[2-(3-pyridyl)vinyl]-1H-indazole] | 0.55 µM | – |
| O=C(Nc1ccc2[nH]nc(/C=C/c3cccnc3)c2c1)c1ccncc1 [Compound 11, (E)-5-(4-Pyridinecarboxamido)-3-[2-(3-pyridyl)vinyl]-1H-indazole] | < 0.5 µM | – |
| O=C(O)c1ccc(C(=O)Nc2ccc3[nH]nc(/C=C/c4cccnc4)c3c2)cc1 [Compound 12, (E)-5-(4-Carboxybenzamido)-3-[2-(3-pyridyl)vinyl]-1H-indazole] | < 0.5 µM | – |
| COC(=O)/C=C/c1ccc2[nH]nc(/C=C/c3cccnc3)c2c1 [Compound 14, (E)-5-(2-Methoxycarbonylvinyl)-(E)-3-[2-(3-pyridyl)vinyl]-1H-indazole] | < 0.5 µM | 62% |
| O=C(O)/C=C/c1ccc2[nH]nc(/C=C/c3cccnc3)c2c1 [Compound 15, (E)-5-(2-Carbonxyvinyl)-(E)-3-[2-(3-pyridyl)vinyl]-1H-indazole] | < 0.5 µM | – |
| O=C(O)c1ccc(/C=C/c2ccc3[nH]nc(/C=C/c4cccnc4)c3c2)cc1 [Compound 17, (E)-5-[2-(4-Carboxyphenyl)vinyl]-(E)-3-[2-(3-pyridyl)vinyl]-1H-indazole] | < 0.5 µM | – |
| OCC#Cc1ccc2[nH]nc(/C=C/c3cccnc3)c2c1 [Compound 18, (E)-5-(3-hydroxy-1-propyn-1-yl)-3-[2-(3-pyridyl)vinyl]-1H-indazole] | < 0.5 µM | – |
| O=C(O)c1ccc2[nH]nc(/C=C/c3cccnc3)c2c1 [Compound 19, (E)-3-[2-(3-Pyridyl)vinyl]-1H-indazole-5-carboxylic acid] | < 0.5 µM | – |
| OCC=Cc1ccc2[nH]nc(/C=C/c3cccnc3)c2c1 [Compound 21, (E)-5-(3-Hydroxy-1-propen-1-yl)-3-[2-(3-pyridyl)vinyl]-1H-indazole] | < 0.5 µM | – |
| O=C(O)c1ccc(C(=O)Nc2ccc3[nH]nc(/C=C/c4cnccc4NC(=O)c4ccccc4)c3c2)cc1 [Compound 24, (E)-3-[2-(4-Benzamidopyridin-3-yl)vinyl]-5-(4-carboxybenzamido)-1H-indazole] | < 0.5 µM | – |
| O=C(Nc1ccccc1/C=C/c1n[nH]c2ccc(/C=C/CO)cc12)c1ccccc1 [Compound 25, (E)-3-[2-(2-Benzoylaminophenyl)vinyl]-(E)-5-(3-hydroxy-1-propen-1-yl)-1H-indazole] | < 0.5 µM | – |
| O=C(Nc1ccccc1/C=C/c1n[nH]c2ccc(C#CCO)cc12)c1ccccc1 [Compound 26, (E)-3-[2-(2-Benezoylaminophenyl)vinyl]-5-(3-hydroxy-1-propyn-1-yl)-1H-indazole] | < 0.5 µM | – |
| (E)-3-[2-(Benzamidopyridin-3-yl)vinyl]-(E)-5-(2-carboxyvinyl)-1H-indazole [Compound 23] | < 0.5 µM | – |
